Consider 5 molecules from EP0829477A1, “NOVEL PHYSIOLOGICALLY ACTIVE NA23063 ANALOGUES, PROCESS FOR PRODUCING THE SAME AND USE OF THE SAME” (NIPPON KAYAKU KABUSHIKI KAISHA, priority 1995, dated 1996).

Data set [1] can be described thus: Solubility of the isolated substances in solvents. The note with it: qualitative; for Solubility: various solvents. In kind it is physicochemical. The protocol:
These pure NA23063A, NA23063B1, NA23063B2, NA23063C and NA23063D were tested for their appearance, molecular weight, solubility, Rf value in silica gel thin-layer column chromatography, UV absorption spectrum, IR absorption spectrum, ^1H-NMR spectrum, and ^13C-NMR spectrum. The physicochemical properties of NA23063A, B1, B2, C and D thus obtained have been shown hereinabove.

Data set [2] relates to Bovine Phosphodiesterase. Description: Phosphodiesterase inhibiting activity (cAMP substrate, remaining cAMP measured by HPLC). In kind it is biochemical. Particulars: for IC50: inhibition of phosphodiesterase, from Table 2 data, read-out: IC 50 values. The protocol: Fifity g of the respiratory smooth muscle of a sacrificed cow was cut into pieces with scissors and a knife, then suspended in 2 mM EDTA-containing 20 mM Tris buffer (pH 7.4) of 5 times by volume the pieces, and homogenized with a polytron homogenizer to prepare a crude phosphodiesterase liquid. This was centrifuged at 10,000 x g for 20 minutes to collect the supernatant, which is a soluble, crude phosphodiesterase liquid. This was put into a Q-Sepharose fast-flow column (100 ml), washed with a buffer, and then eluted with sodium acetate having a gradient concentration of from 50 mM to 1 M. The phosphodiesterase-containing active fraction eluted with 0.7 M sodium acetate was collected.
To determine its phosphodiesterase activity, the enzyme was reacted with a substrate, 3',5'-cyclic adenosine monophosphate (cAMP, manufactured by Sigma Co. in US). After the reaction, the remaining cAMP was measured through high-performance liquid chromatography.
0.02 mg/ml of cAMP, 2.5 mM dithiothreitol, 6 mM magnesium chloride, 50 mM Tris buffer (pH 8.0), 1 µl of the phosphodiesterase liquid prepared above, and a varying amount of the compound of the invention were put into plastic tubes having a volume of 0.3 ml, to which was added water to have a final volume of 200 µl. The mixture was stirred, and incubated at 37°C for 60 minutes. 20 µl of an aqueous solution of 200 mM tetraethylenediamine was added to each tube to stop the reaction. 20 µl of the resulting reaction mixture was subjected to high-performance liquid chromatography (ODS column of 3.9 mm⌀ x 150 mm, manufactured by Waters Co. in US), through which the remaining cAMP was measured. From the data, obtained was the activity of the compound of the invention of inhibiting the enzyme phosphodiesterase, as in Table 2.

Data set [3] relates to guinea pig oxyphiles. Description: Inhibition of activation of oxyphiles (PAF-induced release of active oxygen, luminol chemiluminescence). Particulars: Cavia porcellus, 5 min; PAF stimulation, chemiluminescence for 5 minutes; read-out: IC50 (x 10^-6 M). The format is cell-based, Hartley guinea pigs. The method, then: One mg of polymyxin B (manufactured by Sigma Co.) was intra-abdominally administered to Hartley guinea pigs (6-week age). The chemical was administered to the animals once a week, for 6 to 8 weeks. After the final administration of the chemical polymyxin B, 50 ml of PBS (phosphate-buffered saline) was injected into the abdomen of each guinea pig, and the abdominal cells were collected. These were centrifuged at 800 rpm for 5 minutes to collect the precipitate of abdominal infiltrated cells. The precipitated cells were suspended in 1 ml of 40 % Ficol solution (40 % Ficol (manufactured by Pharmacia Co.) in HBSS (Hanks' […] salt solution)), and stratified over a discontinuous density gradient of Ficol (40 to 90 %). This was centrifuged at 1500 rpm for 40 minutes to collect the oxyphile fraction. This operation generally produced oxyphiles having a purity of 99 % or higher. The cells were washed two times with an RPMI1640 medium (0.2 % BSA (bovine serum albumin), manufactured by Boehringer Mannheim Co.), then suspended to have a predetermined cell concentration, and used in the intended experiments. (B) Effect of Inactivating Oxyphiles (Effect of inhibiting the activity of guinea pig oxyphiles to release active oxygen):
2 µl of each chemical to be tested and 180 µl of the cell suspension were added to each well of a 96-well multiwell plate (white plate for chemiluminometry) which had been previously kept at 37°C, and kept therein at 37°C for 10 minutes. After thus kept, 20 µl of PAF (platelet activating factor) (x -10^-6 M) and 20 µl of a luminol solution were added thereto, and immediately the intensity of chemiluminescence of the system was measured, using […]. The data of chemiluminescence for 5 minutes were obtained, from which was calculated the 50 % inhibition concentration of the compound tested (IC50).

Data set [4] relates to bronchial smooth muscle. Kind of data set: Inhibition of contraction of bronchial smooth muscle (histamine-contracted tracheal strips in an organ bath). The note with it: 10 µg/ml; contraction with 10 µM histamine = 100 %, relaxation with papaverine = 0 %. More on the design: species or system Hartley guinea pigs. The method, then: The tracheae were taken out of male Hartley guinea pigs having a body weight of from 400 to 500 g. These were cut off at the cartilage opposite to the smooth muscle, and sliced into small pieces having a width of 1 mm. Five of these pieces were bound with silk thread into one bundle, of which the both ends were ligated with machine cotton. This was then suspended in an organ bath with applying thereto a tension of 0.5 g. The temperature of the bath was 37°C, and the bath contained a nutrient liquid of Krebs-Hanseleit buffer (118 mM NaCl, 4.6 mM KCl, 1.1 mM MgSO4·7H2O, 1.8 mM CaCl2·2H2O, 24.9 mM NaHCO3, 1.0 mM KH2PO4·2H2O, 11.1 mM glucose). To the nutrient liquid, added was 5 µM indomethacin. The bath was well aerated with a mixed gas of 95 % O2 + 5 % CO2. The suspended tissue was incubated in the organ bath for about 2 hours for habituation in the external environment. Then, this was contracted with 10 µM histamine. After the contraction was stabilized, NA23063D was added to the bath to have a concentration of 0.1, 0.3, 1.0, 3.0, 10 and 30 µg/ml. The reaction in the bath comprising the varying amount of NA23063D was continued until the relaxation of the tissue became stabilized. When no relaxation was admitted in 10 minutes after the addition of the chemical, NA23063D, the concentration of the chemical was increased to the next stage. […]

Data set [5] relates to respiratory tract resistance. Description: Inhibition of immediate allergic respiratory stenosis in ovalbumin-sensitized asthmatic animal models. The format is in vivo, Brown-Norway (BN) rats. Particulars: intravenous administration of 30 mg/kg, rat models, relative to control maximum resistance after antigen. The method, then:
An antigen ovalbumin (OA) was administered to male Brown-Norway (BN) rats to prepare actively-sensitized animal models. To sensitize the animals, 1 ml of the antigen solution (100 mg/ml of Al(OH)3 and 1 mg/ml of OA in aqueous 0.9 % NaCl solution) was subcutaneously administered to the back of each rat. On the other hand, inactivated cells of Bordetella pertussis were suspended in an aqueous solution of 0.9 % NaCl to have a concentration of 1.0 x 10^10 cells/ml. 0.25 ml of the cell suspension was intra-abdominally administered to each rat along with the antigen sensitization. The administration was repeated three times in all, on the 1st, 7th and 14th days. […]
Those actively-sensitized BN rats were anesthetized with sodium pentobarbiturate (50 mg/kg, i.p.), into which was inserted a polyvinyl chloride tube cannula through the respiratory tract. Each rat was purged with air through the cannula, and the respiratory tract resistance was monitored. […] In addition, an additional cannula was inserted into the left common carotid artery of each rat, through which the blood pressure and the heart beat of the rat being tested were monitored. […] On the basis of the time (0, zero) at which the antigen was challenged, the variation (increase or decrease) in the respiratory tract resistance of each rat was recorded at regular intervals before and after the administration of the antigen. […]

SMILES strings stand for the structures.

For `O=c1c(-c2ccc(Oc3cc(-c4coc5cc(O)cc(O)c5c4=O)ccc3O)cc2)coc2cc(O)cc(O)c12` [NA23063A], the Solubility entry in data set [1] is “soluble in lower alcohols, acetone and ethyl acetate, but insoluble in hexane, petroleum ether and water”. For the same molecule, the “Inhibiting Activity (%)” value in data set [2] (Concentration 0.78 µg/ml) stood at 43.5%; in data set [2] (Concentration 1.56 µg/ml), 57.8%; in data set [2] (Concentration 3.13 µg/ml), 60.5%; in data set [2] (Concentration 6.25 µg/ml), 79.5%. Besides, the IC50 in data set [2] amounted to 2100 nM; in data set [3], 100 nM.
Take `O=c1c(-c2ccc(O)c(-c3cc(-c4coc5cc(O)cc(O)c5c4=O)ccc3O)c2)coc2cc(O)cc(O)c12` [NA23063C]: the Solubility entry in data set [1] is “soluble in lower alcohols, acetone, ethyl acetate and dimethylsulfoxide, but insoluble in hexane, petroleum ether and water”. The “Inhibiting Activity (%)” value is 26.4% in data set [2] (Concentration 0.39 µg/ml); 57.7% in data set [2] (Concentration 0.78 µg/ml); 66.5% in data set [2] (Concentration 1.56 µg/ml); 77.6% in data set [2] (Concentration 3.13 µg/ml); 83.8% in data set [2] (Concentration 6.25 µg/ml). For the same molecule, the IC50 was 1300 nM in data set [2] and 320 nM in data set [3].
Regarding `O=c1c(-c2ccc(Oc3cc(-c4coc5cc(O)cc(O)c5c4=O)ccc3O)cc2)coc2cc(O)ccc12` [NA23063B1], the Solubility result in data set [1] was “soluble in lower alcohols, acetone, ethyl acetate and dimethylsulfoxide, but insoluble in hexane, petroleum ether and water”. The “Inhibiting Activity (%)” value in data set [2] (Concentration 0.39 µg/ml) is given as 17.5%; in data set [2] (Concentration 0.78 µg/ml), 28.1%; in data set [2] (Concentration 1.56 µg/ml), 38.2%; in data set [2] (Concentration 3.13 µg/ml), 56.3%; in data set [2] (Concentration 6.25 µg/ml), 64.9%. Besides, the IC50 in data set [2] worked out at 4900 nM.
`O=c1c(-c2ccc(O)c(Oc3ccc(-c4coc5cc(O)cc(O)c5c4=O)cc3)c2)coc2cc(O)ccc12` [NA23063B2]: the Solubility result in data set [1] was “soluble in lower alcohols, acetone, ethyl acetate and dimethylsulfoxide, but insoluble in hexane, petroleum ether and water”. The “Inhibiting Activity (%)” value in data set [2] (Concentration 0.39 µg/ml) was 17.5%; in data set [2] (Concentration 0.78 µg/ml), 28.1%; in data set [2] (Concentration 1.56 µg/ml), 38.2%; in data set [2] (Concentration 3.13 µg/ml), 56.3%; in data set [2] (Concentration 6.25 µg/ml) it was 64.9%. In addition, the IC50 in data set [2] is 4900 nM.
Take `O=c1c(-c2ccc(O)c(-c3cc(-c4coc5cc(O)cc(O)c5c4=O)ccc3O)c2)coc2cc(O)ccc12` [NA23063D]: the “relaxation of the bronchial smooth muscle” value in data set [4] was determined as 61%. Also, the “Solubility in dimethylsulfoxide (DMSO)” value in data set [1] was “soluble”. In addition, the Solubility entry in data set [1] was “soluble in lower alcohols, acetone, ethyl acetate and dimethylsulfoxide, but insoluble in hexane, petroleum ether and water”. The “Inhibiting Activity (%)” value in data set [2] (Concentration 0.39 µg/ml) amounted to 18.9%; in data set [2] (Concentration 0.78 µg/ml), 30.7%; in data set [2] (Concentration 1.56 µg/ml), 34.6%; in data set [2] (Concentration 3.13 µg/ml), 44.8%; in data set [2] (Concentration 6.25 µg/ml), 61.0%. The IC50 in data set [2] amounted to 7900 nM; in data set [3], 1100 nM. In addition, in data set [5], the “% inhibition (decrease in the respiratory tract resistance)” value was determined as 54%.
